Reference: patent US20100093648A1, “TREATMENT OF MACULAR DEGENERATION-RELATED DISORDERS” (priority 2008, published 2010)

System: APOE4 HF-C mice
Assay: Electroretinogram (ERG) in aged APOE4 mice on high fat/cholesterol diet (murine AMD model)
Assay type: in vivo, mouse
Conditions: aged male APOE4 mice, high cholesterol diet 8 weeks, scyllo-inositol 10 mg/ml in drinking water ad libitum
From the text: The ocular pathologies of AMD may be recapitulated in a murine model by applying three physiologically relevant risk factors: specific APOE genotype (APOE4), advanced age and high fat/cholesterol-rich (HF-C) diet. These mice develop sub-retinal pigment epithelium (RPE) deposits (basal deposits), RPE atrophy and choroidal neovascularization in a temporal, non-fully penetrant manner that is analogous to human AMD progression [Malek, G., et al., (2005), Proc Natl Acad Sci USA 102, 11900-5]. An electrophysiological phenotype is associated with this pathology. […] The ability of scyllo-inositol (AZD-103/ELN005) to prevent retina/RPE damage, the buildup of basal deposits and attenuation of the ERG was evaluated.
Aged male APOE4 mice housed conventionally, under ambient conditions maintained on water ad libitum and normal mouse chow (normal diet or ND), were assigned to three treatment groups. This assignment was random, although the ages of the animals were balanced across the groups. One group was maintained on the normal diet. The second group was switched to a high fat cholesterol (HFC) diet (35% fat, 20% protein, 45% carbohydrates, 1.25% cholesterol, 0.5% sodium cholate) for 8 weeks. The third group received scyllo-inositol (AZD-103/ELN005) ad libitum (dissolved in drinking water at 10 mg/ml) for 7 days. They were then switched to the HF-C diet for 8 weeks, during which time they continued to receive scyllo-inositol (AZD-103/ELN005) ad libitum. […] ERG tracings were recorded using a platinum iridium wire loop electrode placed in contact with the eye along with a drop of 2.5% hydroxypropyl methylcellulose. […] The a-wave amplitude was measured from baseline to the a-wave trough, and the b-wave amplitude was measured from the a-wave trough to the b-wave peak. • 4. […] Quantitation of photoreceptors. […] The thickness of outer nuclear layer and the linear density of photoreceptor will be calculated. […]
After 8 weeks, animals were assessed by electroretinogram. […] The electrophysiological response to these flashes was recorded by an electrode touching the surface of the eye. […]

“scyllo-inositol [scyllo-inositol (AZD-103/ELN005)]” was tested, and the “a-wave amplitude (ERG)” value was “consistent”, the “retinal function as demonstrated by ERGs” value was “prevented the retinal defect that was caused by high cholesterol diet” and the “scotopic b-wave amplitude (ERG)” value (all flash intensities, compared with normal diet controls) was “virtually indistinguishable from the normal diet control animals”.
